Key:
[1] = system: phosphorylated AKT Ser473 (pAKT S473), mTORC2 activity, PC3 cells; test: mTOR target engagement assay, immunofluorescent cell-based, pAKT S473 readout (mTORC2 activity); settings: Homo sapiens, PC-3, Table 3-1; PC3 cells
Summary of the method: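 After blocking, cells were stained overnight at 4 °C with anti-pAKT S473 antibody, then a fluorescent secondary; inhibition was read as reduced fluorescence intensity.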

[2] = system: phosphorylated 4E-BP1 Thr37/46 (p4E-BP1 Thr37/46), mTORC1 activity, PC3 cells; test: mTOR target engagement assay, immunofluorescent cell-based, p4E-BP1 Thr37/46 readout (mTORC1 activity); settings: Homo sapiens, PC-3, Table 3-1; PC3 cells; read-out: p4E-BP1 Thr37/46 IC50
Summary of the method: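 Seed PC3 cells overnight; treat with compound dilutions for ninety minutes at 37° C; fix with glyoxal and block; stain with anti-p4E-BP1 Thr37/46 overnight at 4° C, then fluorescent secondary; read fluorescence and fit IC50 against DMSO-only controls.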

Which results are given for `COc1ccc(-c2ccc(-c3cnn4c(N)c(S(C)(=O)=O)c([C@@H]5C[C@H]6CC[C@@H](C5)N6C(=O)CO)nc34)cn2)cc1` [Compound 3.36, 1-((1R,3s,5S)-3-(7-amino-3-(6-(4-methoxphenyl)pyridin-3-yl)-6-(methylsulfonyl)pyrazolo[1,5-a]pyrimidin-5-yl)-8-azabicyclo[3.2.1]octan-8-yl)-2-hydroxyethanone]?
IC50 [1]: 1 to 100 nM; IC50 [2]: 1 to 100 nM

For `COc1ccc(-c2ccc(-c3cnn4c(N)c(S(C)(=O)=O)c([C@@H]5C[C@H]6CC[C@@H](C5)N6C(=O)c5nnc[nH]5)nc34)cn2)cc1F` [Compound 3.37, ((1R,3s,5S)-3-(7-amino-3-(6-(3-fluoro-4-methoxyphenyl)pyridin-3-yl)-6-(methylsulfonyl)pyrazolo[1,5-a]pyrimidin-5-yl)-8-azabicyclo[3.2.1]octan-8-yl)(4H-1,2,4-triazol-3-yl)methanone], which IC50 [1] is on record?
Its IC50 is 1 to 100 nM.

And the IC50 [2]?
Its IC50 is 1 to 100 nM.

What does the source list for `COc1ccc(-c2ccc(-c3cnn4c(N)c(S(C)(=O)=O)c([C@@H]5C[C@H]6CC[C@@H](C5)N6C(=O)CO)nc34)cn2)cc1F` [Compound 3.38, 1-((1R,3s,5S)-3-(7-amino-3-(6-(3-fluoro-4-methoxyphenyl)pyridin-3-yl)-6-(methylsulfonyl)pyrazolo[1,5-a]pyrimidin-5-yl)-8-azabicyclo[3.2.1]octan-8-yl)-2-hydroxyethanone]?
IC50 [1]: 1 to 100 nM; IC50 [2]: 100 to 1000 nM

With `COc1ccc(-c2ccc(-c3cnn4c(N)c(S(C)(=O)=O)c([C@@H]5C[C@H]6CC[C@@H](C5)N6C(=O)c5nnc[nH]5)nc34)cn2)cc1OC` [Compound 3.39, ((1R,3s,5S)-3-(7-amino-3-(6-(3,4-dimethoxyphenyl)pyridin-3-yl)-6-(methylsulfonyl)pyrazolo[1,5-a]pyrimidin-5-yl)-8-azabicyclo[3.2.1]octan-8-yl)(4H-1,2,4-triazol-3-yl)methanone] as the compound, how does the IC50 [1] read?
Its IC50 is 100 to 1000 nM.

And the IC50 [2]?
The IC50 was 100 to 1000 nM.

Which results are given for `Cn1ccc(-c2ccc(-c3cnn4c(N)c(S(C)(=O)=O)c([C@@H]5C[C@H]6CC[C@@H](C5)N6C(=O)c5nnc[nH]5)nc34)cn2)n1` [Compound 3.40, ((1R,3s,5S)-3-(7-amino-3-(6-(1-methyl-1H-pyrazol-3-yl)pyridin-3-yl)-6-(methylsulfonyl)pyrazolo[1,5-a]pyrimidin-5-yl)-8-azabicyclo[3.2.1]octan-8-yl)(4H-1,2,4-triazol-3-yl)methanone]?
IC50 [1]: 1 to 100 nM; IC50 [2]: 1 to 100 nM

With `Cn1ccc(-c2ccc(-c3cnn4c(N)c(S(C)(=O)=O)c([C@@H]5C[C@H]6CC[C@@H](C5)N6C(=O)c5nnc[nH]5)nc34)c[n+]2[O-])n1` [Compound 3.41, 5-(5-((1R,3s,5S)-8-(4H-1,2,4-triazole-3-carbonyl)-8-azabicyclo[3.2.1]octan-3-yl)-7-amino-6-(methylsulfonyl)pyrazolo[1,5-a]pyrimidin-3-yl)-2-(1-methyl-1H-pyrazol-3-yl)pyridine 1-oxide] as the compound, how does the IC50 [1] read?
The IC50 was 1 to 100 nM.

What about the IC50 [2] of the same compound?
The IC50 was 100 to 1000 nM.

Which results are given for `Cn1nnc(-c2ccc(-c3cnn4c(N)c(S(C)(=O)=O)c([C@@H]5C[C@H]6CC[C@@H](C5)N6C(=O)c5nnc[nH]5)nc34)cn2)n1` [Compound 3.42, ((1R,3a,5S)-3-(7-amino-3-(6-(2-methyl-2H-tetrazol-5-yl)pyridin-3-yl)-6-(methylsulfonyl)pyrazolo[1,5-a]pyrimidin-5-yl)-8-azabicyclo[3.2.1]octan-8-yl)(4H-1,2,4-triazol-3-yl)methanone]?
IC50 [1]: 100 to 1000 nM; IC50 [2]: 1000 to 10000 nM

For `Cn1nnc(-c2ccc(-c3cnn4c(N)c(S(C)(=O)=O)c([C@@H]5C[C@H]6CC[C@@H](C5)N6C(=O)CO)nc34)cn2)n1` [Compound 3.43, 1-((1R,3a,5S)-3-(7-amino-3-(6-(2-methyl-2H-tetrazol-5-yl)pyridin-3-yl)-6-(methylsulfonyl)pyrazolo[1,5-a]pyrimidin-5-yl)-8-azabicyclo[3.2.1]octan-8-yl)-2-hydroxyethanone], which IC50 [1] is on record?
Its IC50 is 1000 to 10000 nM.

What about the IC50 [2] of the same compound?
Its IC50 is > 10000 nM.

Which results are given for `CS(=O)(=O)c1c([C@@H]2C[C@H]3CC[C@@H](C2)N3C(=O)c2nnc[nH]2)nc2c(-c3ccc(-c4ccc(F)c(F)c4)nc3)cnn2c1N` [Compound 3.44, ((1R,3s,5S)-3-(7-amino-3-(6-(3,4-difluorophenyl)pyridin-3-yl)-6-(methylsulfonyl)pyrazolo[1,5-a]pyrimidin-5-yl)-8-azabicyclo[3.2.1]octan-8-yl)(4H-1,2,4-triazol-3-yl)methanone]?
IC50 [1]: 1 to 100 nM; IC50 [2]: 1 to 100 nM

Which results are given for `Cc1ccc(-c2ccc(-c3cnn4c(N)c(S(C)(=O)=O)c([C@@H]5C[C@H]6CC[C@@H](C5)N6C(=O)c5nnc[nH]5)nc34)cn2)cc1F` [Compound 3.45, ((1R,3s,5S)-3-(7-amino-3-(6-(3-fluoro-4-methylphenyl)pyridin-3-yl)-6-(methylsulfonyl)pyrazolo[1,5-a]pyrimidin-5-yl)-8-azabicyclo[3.2.1]octan-8-yl)(4H-1,2,4-triazol-3-yl)methanone]?
IC50 [1]: 1 to 100 nM; IC50 [2]: 1 to 100 nM

`CS(=O)(=O)c1c([C@@H]2C[C@H]3CC[C@@H](C2)N3C(=O)c2nnc[nH]2)nc2c(-c3ccc(-c4cccc(F)c4)nc3)cnn2c1N` [Compound 3.46, ((1R,3s,5S)-3-(7-amino-3-(6-(3-fluorophenyl)pyridin-3-yl)-6-(methylsulfonyl)pyrazolo[1,5-a]pyrimidin-5-yl)-8-azabicyclo[3.2.1]octan-8-yl)(4H-1,2,4-triazol-3-yl)methanone] was tested. Which IC50 [1] did it give?
The IC50 was 1 to 100 nM.

And the IC50 [2]?
The IC50 was 1 to 100 nM.

Which IC50 [1] does the source give for `CS(=O)(=O)c1c([C@@H]2C[C@H]3CC[C@@H](C2)N3C(=O)c2nnc[nH]2)nc2c(-c3ccc(-c4cccc(F)c4F)nc3)cnn2c1N` [Compound 3.47, ((1R,3s,5S)-3-(7-amino-3-(6-(2,3-difluorophenyl)pyridin-3-yl)-6-(methylsulfonyl)pyazolo[1,5-a]pyrimidin-5-yl)-8-azabicyclo[3.2.1]octan-8-yl)(4H-1,2,4-triazol-3-yl)methanone] here?
Its IC50 is 1 to 100 nM.

And the IC50 [2]?
Its IC50 is 1 to 100 nM.

`CS(=O)(=O)c1c([C@@H]2C[C@H]3CC[C@@H](C2)N3C(=O)c2nnc[nH]2)nc2c(-c3ccc(-c4ncccc4F)nc3)cnn2c1N` [Compound 3.48, ((1R,3s,5S)-3-(7-amino-3-(3′-fluoro-2,2′-bipyridin-5-yl)-6-(methylsulfonyl)pyrazolo[1,5-a]pyrimidin-5-yl)-8-azabicyclo[3.2.1]octan-8-yl)(4H-1,2,4-triazol-3-yl)methanone] was tested. Which IC50 [1] did it give?
The IC50 was 1 to 100 nM.

What about the IC50 [2] of the same compound?
The IC50 was 1 to 100 nM.

Which results are given for `COc1c(F)cc(-c2ccc(-c3cnn4c(N)c(S(C)(=O)=O)c([C@@H]5C[C@H]6CC[C@@H](C5)N6C(=O)c5nnc[nH]5)nc34)cn2)cc1F` [Compound 3.49, ((1R,3s,5S)-3-(7-amino-3-(6-(3,5-difluoro-4-methoxyphenyl)pyridin-3-yl)-6-(methylsulfonyl)pyrazolo[1,5-a]pyrimidin-5-yl)-8-azabicyclo[3.2.1]octan-8-yl)(4H-1,2,4-triazol-3-yl)methanone]?
IC50 [1]: 100 to 1000 nM; IC50 [2]: 100 to 1000 nM

What does the source list for `COc1ccc(-c2ccc(-c3cnn4c(N)c(S(C)(=O)=O)c([C@@H]5C[C@H]6CC[C@@H](C5)N6C(=O)c5nnc[nH]5)nc34)cn2)cc1C` [Compound 3.50, ((1R,3s,5S)-3-(7-amino-3-(6-(4-methoxy-3-methylphenyl)pyridin-3-yl)-6-(methylsulfonyl)pyrazolo[1,5-a]pyrimidin-5-yl)-8-azabicyclo[3.2.1]octan-8-yl)(4H-1,2,4-triazol-3-yl)methanone]?
IC50 [1]: 1 to 100 nM; IC50 [2]: 1 to 100 nM

How did the IC50 [1] turn out when `COc1ccc(-c2ccc(-c3cnn4c(N)c(S(C)(=O)=O)c([C@@H]5C[C@H]6CC[C@@H](C5)N6C(=O)c5nnc[nH]5)nc34)cn2)cc1Cl` [Compound 3.51, ((1R,3s,5S)-3-(7-amino-3-(6-(3-chloro-4-methoxyphenyl)pyridin-3-yl)-6-(methylsulfonyl)pyrazolo[1,5-a]pyrimidin-5-yl)-8-azabicyclo[3.2.1]octan-8-yl)(4H-1,2,4-triazol-3-yl)methanone] was run?
The IC50 was 1 to 100 nM.

What about the IC50 [2] of the same compound?
The IC50 was 1 to 100 nM.

With `CS(=O)(=O)c1c([C@@H]2C[C@H]3CC[C@@H](C2)N3C(=O)c2nnc[nH]2)nc2c(-c3ccc(-c4ccc5c(c4)OCO5)nc3)cnn2c1N` [Compound 3.52, ((1R,3s,5S)-3-(7-amino-3-(6-(benzo[d][1,3]dioxol-5-yl)pyridin-3-yl)-6-(methylsulfonyl)pyrazolo[1,5-a]pyrimidin-5-yl)-8-azabicyclo[3.2.1]octan-8-yl)(4H-1,2,4-triazol-3-yl)methanone] as the compound, how does the IC50 [1] read?
Its IC50 is 1 to 100 nM.

What about the IC50 [2] of the same compound?
Its IC50 is 1 to 100 nM.

For `CS(=O)(=O)c1c([C@@H]2C[C@H]3CC[C@@H](C2)N3C(=O)c2nnc[nH]2)nc2c(-c3ccc(-c4ccc5c(c4)OC(F)(F)O5)nc3)cnn2c1N` [Compound 3.53, ((1R,3s,5S)-3-(7-amino-3-(6-(2,2-difluorobenzo[d][1,3]dioxol-5-yl)pyridin-3-yl)-6-(methylsulfonyl)pyrazolo[1,5-a]pyrimidin-5-yl)-8-azabicyclo[3.2.1]octan-8-yl)(4H-1,2,4-triazol-3-yl)methanone], which IC50 [1] is on record?
Its IC50 is 100 to 1000 nM.

And the IC50 [2]?
Its IC50 is 1000 to 10000 nM.

Which IC50 [1] does the source give for `COc1ccc(-c2ccc(-c3cnn4c(N)c(S(C)(=O)=O)c([C@@H]5C[C@H]6CC[C@@H](C5)N6C(=O)c5nnc[nH]5)nc34)cn2)c(F)c1F` [Compound 3.54, ((1R,3s,5S)-3-(7-amino-3-(6-(2,3-difluoro-4-methoxyphenyl)pyridin-3-yl)-6-(methylsulfonyl)pyrazolo[1,5-a]pyrimidin-5-yl)-8-azabicyclo[3.2.1]octan-8-yl)(4H-1,2,4-triazol-3-yl)methanone] here?
The IC50 was 1 to 100 nM.

And the IC50 [2]?
Its IC50 is 1 to 100 nM.

Reference: patent US9227971B2, “Pyrazolo[1,5-a]pyrimidine compounds as mTOR inhibitors” (Merck Sharp & Dohme Corp., priority 2010, dated 2016)
